Results reported in PubChem BioAssay AID248 (DTP/NCI, 2004).
Inconclusive results and toxic doses are left out. Rule as the data show it: active = T/C of 150% or more; inactive = T/C below 125%.

System: L1210 leukemia ip in BDF1 mice, survival T/C
Assay: NCI In Vivo Anticancer Drug Screen. Data for tumor model L1210 Leukemia (intraperitoneal) in B6D2F1 (BDF1) mice
Settings: endpoint: mean survival time, higher = longer survival
How it was run: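 Tumor cells were implanted, animals were treated, and survival was followed. The result divides the treated measurement by the vehicle-control measurement.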

[1] = dose: 100.0 mg/kg/injection, schedule: Q01DX001 (ip), vehicle: Klucel (hydroxypropylcellulose) (HPC)
[2] = dose: 100.0 mg/kg/injection, schedule: Q04DX003 (ip), vehicle: Klucel (hydroxypropylcellulose) (HPC)
[3] = dose: 200.0 mg/kg/injection, schedule: Q01DX001 (ip), vehicle: Klucel (hydroxypropylcellulose) (HPC)
[4] = dose: 200.0 mg/kg/injection, schedule: Q04DX003 (ip), vehicle: Klucel (hydroxypropylcellulose) (HPC)
[5] = dose: 400.0 mg/kg/injection, schedule: Q01DX001 (ip), vehicle: Klucel (hydroxypropylcellulose) (HPC)
[6] = dose: 400.0 mg/kg/injection, schedule: Q04DX003 (ip), vehicle: Klucel (hydroxypropylcellulose) (HPC)
[7] = dose: 100.0 mg/kg/injection, schedule: Q04DX003 (ip), vehicle: saline
[8] = dose: 200.0 mg/kg/injection, schedule: Q04DX003 (ip), vehicle: saline
[9] = dose: 400.0 mg/kg/injection, schedule: Q04DX003 (ip), vehicle: saline
[10] = dose: 100.0 mg/kg/injection, schedule: Q01DX009 (ip), vehicle: Klucel (hydroxypropylcellulose) (HPC)
[11] = dose: 100.0 mg/kg/injection, schedule: Q04DX003 (ip), vehicle: saline with Tween-80
[12] = dose: 200.0 mg/kg/injection, schedule: Q04DX003 (ip), vehicle: saline with Tween-80
[13] = dose: 400.0 mg/kg/injection, schedule: Q04DX003 (ip), vehicle: saline with Tween-80

Measured: T/C

CC(C(O)c1ccccc1)C(O)(C(F)(F)Cl)C(F)(F)Cl (configuration not stated)
inactive: [1] 102 % of control | [2] 98 % of control | [3] 102 % of control | [4] 88 % of control | [5] 107 % of control | [6] 114 % of control

CC1=CC(C)(C(Cl)(Cl)Cl)C=C/C1=N\OC(C)C(=O)O (configuration not stated)
inactive: dose: 75.0 mg/kg/injection, schedule: Q01DX001 (ip), vehicle: carboxymethylcellulose (CMC) 95 % of control | [7] 106 % of control | dose: 150.0 mg/kg/injection, schedule: Q01DX001 (ip), vehicle: carboxymethylcellulose (CMC) 106 % of control | [8] 95 % of control | [9] 97 % of control

CN1CCC(OC(=O)C(F)(c2ccccc2)c2ccccc2)CC1
inactive: dose: 20.0 mg/kg/injection, schedule: Q01DX001 (ip), vehicle: saline 98 % of control

CC(=O)Nc1cccc2cccnc12
inactive: dose: 12.5 mg/kg/injection, schedule: Q01DX009 (ip), vehicle: saline with Tween-80 92 % of control | dose: 25.0 mg/kg/injection, schedule: Q01DX009 (ip), vehicle: saline with Tween-80 95 % of control | dose: 50.0 mg/kg/injection, schedule: Q01DX009 (ip), vehicle: saline with Tween-80 90 % of control | dose: 75.0 mg/kg/injection, schedule: Q01DX001 (ip), vehicle: other 104 % of control | dose: 75.0 mg/kg/injection, schedule: Q01DX009 (ip), vehicle: other 98 % of control | dose: 75.0 mg/kg/injection, schedule: Q01DX009 (ip), vehicle: saline with Tween-80 87 % of control | [10] 90 % of control | dose: 100.0 mg/kg/injection, schedule: Q01DX009 (ip), vehicle: saline 93 % of control | [11] 107 % of control | [7] 108 % of control | dose: 150.0 mg/kg/injection, schedule: Q01DX001 (ip), vehicle: other 103 % of control | dose: 200.0 mg/kg/injection, schedule: Q01DX009 (ip), vehicle: Klucel (hydroxypropylcellulose) (HPC) 93 % of control | dose: 200.0 mg/kg/injection, schedule: Q01DX009 (ip), vehicle: saline 95 % of control | [8] 106 % of control | dose: 300.0 mg/kg/injection, schedule: Q01DX001 (ip), vehicle: other 94 % of control | [9] 89 % of control

OC(c1ccccc1)(c1ccccc1)C1CCC1
inactive: dose: 50.0 mg/kg/injection, schedule: Q01DX009 (ip), vehicle: Klucel (hydroxypropylcellulose) (HPC) 100 % of control | dose: 75.0 mg/kg/injection, schedule: Q01DX001 (ip), vehicle: Klucel (hydroxypropylcellulose) (HPC) 95 % of control | [10] 94 % of control | dose: 150.0 mg/kg/injection, schedule: Q01DX001 (ip), vehicle: Klucel (hydroxypropylcellulose) (HPC) 101 % of control | dose: 300.0 mg/kg/injection, schedule: Q01DX001 (ip), vehicle: Klucel (hydroxypropylcellulose) (HPC) 98 % of control

CC1CC(CC(=O)O)(C(=O)O)CC(C)O1 (configuration not stated)
inactive: [1] 105 % of control | [11] 90 % of control | [3] 97 % of control | [12] 101 % of control | [5] 92 % of control | [13] 95 % of control

c1ccc2cc3c(cc2c1)Nc1cc2ccccc2cc1N3
inactive: dose: 100.0 mg/kg/injection, schedule: Q01DX009 (ip), vehicle: saline with Tween-80 93 % of control | [11] 97 % of control | dose: 200.0 mg/kg/injection, schedule: Q01DX009 (ip), vehicle: saline with Tween-80 93 % of control | [12] 101 % of control | dose: 400.0 mg/kg/injection, schedule: Q01DX009 (ip), vehicle: saline with Tween-80 88 % of control | [13] 103 % of control

NC(=O)Nc1cccc(Cl)c1
inactive: dose: 100.0 mg/kg/injection, schedule: Q04DX002 (ip), vehicle: gum acacia 106 % of control | dose: 200.0 mg/kg/injection, schedule: Q04DX002 (ip), vehicle: gum acacia 98 % of control | dose: 400.0 mg/kg/injection, schedule: Q04DX002 (ip), vehicle: gum acacia 106 % of control

Cc1ccc(C(=O)c2ccc3c4c(cccc24)CC3)cc1
inactive: [2] 112 % of control | [4] 88 % of control | [6] 100 % of control

c1cc[c]([Sn]([S]c2ccccn2)([c]2ccccc2)[c]2ccccc2)cc1
inactive: dose: 6.25 mg/kg/injection, schedule: Q04DX002 (ip), vehicle: saline with Tween-80 93 % of control | dose: 12.5 mg/kg/injection, schedule: Q04DX002 (ip), vehicle: saline with Tween-80 93 % of control | dose: 25.0 mg/kg/injection, schedule: Q04DX002 (ip), vehicle: saline with Tween-80 108 % of control

CCOc1ccc(C(C)CC(=O)NN)c(O)c1 (configuration not stated)
inactive: dose: 75.0 mg/kg/injection, schedule: Q01DX001 (ip), vehicle: saline with Tween-80 95 % of control | dose: 150.0 mg/kg/injection, schedule: Q01DX001 (ip), vehicle: saline with Tween-80 98 % of control | dose: 300.0 mg/kg/injection, schedule: Q01DX001 (ip), vehicle: saline with Tween-80 101 % of control

O=[N+]([O-])c1ccc(Oc2ccccc2)c(Cl)c1
inactive: dose: 75.0 mg/kg/injection, schedule: Q01DX009 (ip), vehicle: Klucel (hydroxypropylcellulose) (HPC) 101 % of control | dose: 75.0 mg/kg/injection, schedule: Q04DX003 (ip), vehicle: Klucel (hydroxypropylcellulose) (HPC) 96 % of control | dose: 150.0 mg/kg/injection, schedule: Q01DX009 (ip), vehicle: Klucel (hydroxypropylcellulose) (HPC) 108 % of control | dose: 150.0 mg/kg/injection, schedule: Q04DX003 (ip), vehicle: Klucel (hydroxypropylcellulose) (HPC) 110 % of control | dose: 300.0 mg/kg/injection, schedule: Q01DX009 (ip), vehicle: Klucel (hydroxypropylcellulose) (HPC) 108 % of control | dose: 300.0 mg/kg/injection, schedule: Q04DX003 (ip), vehicle: Klucel (hydroxypropylcellulose) (HPC) 93 % of control

COC1=NS(=O)(=O)CC(c2ccccc2)O1 (configuration not stated)
inactive: dose: 75.0 mg/kg/injection, schedule: Q04DX003 (ip), vehicle: other 102 % of control | dose: 150.0 mg/kg/injection, schedule: Q04DX003 (ip), vehicle: other 86 % of control | dose: 300.0 mg/kg/injection, schedule: Q04DX003 (ip), vehicle: other 94 % of control

O=C(NCP(=O)(O)O)c1cccnc1
inactive: dose: 100.0 mg/kg/injection, schedule: Q04DX003 (ip), vehicle: saline sonified 94 % of control | dose: 200.0 mg/kg/injection, schedule: Q04DX003 (ip), vehicle: saline sonified 100 % of control | dose: 400.0 mg/kg/injection, schedule: Q04DX003 (ip), vehicle: saline sonified 102 % of control

Cc1ccc(C)c(NC(=O)c2ccc([N+](=O)[O-])cc2)c1
inactive: dose: 100.0 mg/kg/injection, schedule: Q04DX002 (ip), vehicle: Klucel (hydroxypropylcellulose) (HPC) 100 % of control | dose: 200.0 mg/kg/injection, schedule: Q04DX002 (ip), vehicle: Klucel (hydroxypropylcellulose) (HPC) 89 % of control | dose: 400.0 mg/kg/injection, schedule: Q04DX002 (ip), vehicle: Klucel (hydroxypropylcellulose) (HPC) 92 % of control

O=C(C/C(=N/O)c1ccccc1)c1ccccc1
inactive: dose: 50.0 mg/kg/injection, schedule: Q01DX001 (ip), vehicle: saline 98 % of control | dose: 100.0 mg/kg/injection, schedule: Q01DX001 (ip), vehicle: saline 102 % of control | dose: 200.0 mg/kg/injection, schedule: Q01DX001 (ip), vehicle: saline 96 % of control | dose: 400.0 mg/kg/injection, schedule: Q01DX001 (ip), vehicle: saline 90 % of control

COC(=O)/C=C/C=C/c1ccc(Br)cc1
inactive: [7] 91 % of control | [8] 92 % of control | [9] 92 % of control

COC1CCCNC1CC(=O)Cn1cnc2cc3c(cc2c1=O)OCO3 (configuration not stated)
inactive: dose: 18.75 mg/kg/injection, schedule: Q01DX009 (ip), vehicle: saline 92 % of control | dose: 37.5 mg/kg/injection, schedule: Q01DX009 (ip), vehicle: saline 111 % of control | dose: 37.5 mg/kg/injection, schedule: Q04DX003 (ip), vehicle: saline 98 % of control | dose: 75.0 mg/kg/injection, schedule: Q01DX001 (ip), vehicle: saline 101 % of control | dose: 75.0 mg/kg/injection, schedule: Q01DX009 (ip), vehicle: saline 93 % of control | dose: 75.0 mg/kg/injection, schedule: Q04DX003 (ip), vehicle: saline 104 % of control | dose: 150.0 mg/kg/injection, schedule: Q01DX001 (ip), vehicle: saline 107 % of control | dose: 150.0 mg/kg/injection, schedule: Q04DX003 (ip), vehicle: saline 100 % of control
